Results published in patent US20030215462A1, “Use of UGT inhibitors to increase bioavailability” (priority 2001, published 2003).
“And” between values parts separate entries of the source, which are not always exact repeats. Identical values can stand only once. Like-named read-outs stand apart in the source and are kept apart here.

Columns and labels:
Assay type in all cases: biochemical
[1] = target: T1, UGT enzymes of human liver microsomes (Homo sapiens, UniProt P16662); test: Inhibition of zidovudine glucuronidation in human liver microsomes; settings: liver lot 062101
T1 construct: residual metabolism (percentage of control), zidovudine glucuronidation; other: liver lot 062101; residual metabolism (percentage of control), zidovudine glucuronidation; residual metabolism (percentage of control)
T1 sequence (P16662 1-529): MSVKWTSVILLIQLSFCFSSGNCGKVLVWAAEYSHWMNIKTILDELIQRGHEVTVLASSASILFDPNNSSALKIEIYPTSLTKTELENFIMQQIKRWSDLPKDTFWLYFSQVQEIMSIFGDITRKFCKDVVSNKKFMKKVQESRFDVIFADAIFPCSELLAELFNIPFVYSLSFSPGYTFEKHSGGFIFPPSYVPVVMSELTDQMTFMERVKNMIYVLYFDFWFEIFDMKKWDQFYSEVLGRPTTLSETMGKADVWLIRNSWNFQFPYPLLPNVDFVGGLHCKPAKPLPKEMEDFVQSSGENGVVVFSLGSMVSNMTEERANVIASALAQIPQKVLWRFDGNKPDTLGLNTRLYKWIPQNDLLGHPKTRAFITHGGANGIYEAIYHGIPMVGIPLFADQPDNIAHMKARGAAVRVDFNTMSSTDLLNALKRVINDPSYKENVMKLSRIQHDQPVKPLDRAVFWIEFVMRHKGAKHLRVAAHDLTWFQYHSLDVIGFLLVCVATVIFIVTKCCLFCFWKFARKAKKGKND
Protocol: Compounds were eluted using a binary solvent gradient system where solvent A was dilute phosphoric acid (pH 3) and solvent B was acetonitrile.
Standardized incubations utilized 500 μM zidovudine substrate, 1 mg/ml microsomal protein, 5 mM UDPGA and a 30 min incubation time. […] Int.

[2] = test system: UGT enzymes of human liver microsomes; test: Inhibition of raloxifene glucuronidation (G1, G2) in human liver microsomes
Description: Compounds were eluted using a binary solvent gradient system. […] Solvent B was methanol. […] Detection was at 280 nm.

[3] = test system: T2, UGT enzymes of human liver microsomes; test: Inhibition of 7-HFC glucuronidation in human liver microsomes; settings: for % of control metabolism (SD, n = 3), 7-HFC glucuronidation: 7-HFC 50 μM, human liver microsomes 100 μg/ml, 15 min
T2 construct: percentage of control metabolism, 7-HFC glucuronidation; percentage of control metabolism, 7-HFC glucuronidation

[4] = G1, inhibitor 100 μM, raloxifene 50 μM, human liver microsomes 250 μg/ml, 15 min
[5] = G1, inhibitor 500 μM, raloxifene 50 μM, human liver microsomes 250 μg/ml, 15 min
[6] = G2, inhibitor 100 μM, raloxifene 50 μM, human liver microsomes 250 μg/ml, 15 min
[7] = G2, inhibitor 500 μM, raloxifene 50 μM, human liver microsomes 250 μg/ml, 15 min

| SMILES | residual metabolism (percentage of control), zidovudine glucuronidation ([1]; inhibitor 500 μM) | percentage of control metabolism, 7-HFC glucuronidation ([3]; inhibitor 100 μM) | % of control metabolism (SD, n = 3), 7-HFC glucuronidation ([3]; inhibitor 100 μM) | percentage of control metabolism, 7-HFC glucuronidation ([3]; inhibitor 200 μM) | % of control metabolism (SD, n = 3), 7-HFC glucuronidation ([3]; inhibitor 200 μM) | percentage of control metabolism, 7-HFC glucuronidation ([3]; inhibitor 500 μM) | % of control metabolism (SD, n = 3), 7-HFC glucuronidation ([3]; inhibitor 500 μM) | residual metabolism (percentage of control), zidovudine glucuronidation ([1]; inhibitor 1000 μM) | other results |
| --- | --- | --- | --- | --- | --- | --- | --- | --- | --- |
| Cc1cc(=O)oc2cc(O)ccc12 [4-Methylumbelliferone, reference compound] | 81 (2) % | 78 (1) % | 78 (1) % | 64 (1) % | 64 (1) % | 45 (1) % and 47 (2) % | 45 (1), % and 47 (2) % |  | % of control metabolism, raloxifene G1 [2]: 35 (3), 39 (2) % and 37 (1), 40 (1) % and 51 (1), 53 (2) % and 69 (4), 71 (8) %; % of control metabolism, raloxifene G2 [2]: 35 (3), 39 (2) % and 37 (1), 40 (1) % and 51 (1), 53 (2) % and 69 (4), 71 (8) % |
| COc1cc(CNC(=O)CCCC/C=C/C(C)C)ccc1O [Capsaicin] | 57 (4) % | 53 (1) % and 57 (0) % | 53 (1), % and 57 (0) % | 42 (1) % and 44 (1) % | 42 (1), % and 44 (1) % | 39 (0) % | 39 (0) % | 34 (1) % | % of control metabolism (SD, n = 3), raloxifene glucuronide G1 [2, 4]: 55 (4) %; % of control metabolism (SD, n = 3), raloxifene glucuronide G1 [2, 5]: 26 (1) %; % of control metabolism (SD, n = 3), raloxifene glucuronide G2 [2, 6]: 69 (4) %; % of control metabolism (SD, n = 3), raloxifene glucuronide G2 [2, 7]: 33 (3) %; percentage of control metabolism, 7-HFC glucuronidation ([3]; inhibitor 50 μM): 69 (1) %; % of control metabolism (SD, n = 3), 7-HFC glucuronidation ([3]; inhibitor 50 μM): 69 (1) % |
| Cc1ccc(C(C)C)cc1O [Carvacrol] | 50 (3) % and 45 (0) % | 79 (1) % | 79 (1) % | 63 (0) % | 63 (0) % | 31 (1) % | 31 (1) % | 20 (1) % | residual metabolism (percentage of control), zidovudine glucuronidation ([1]; inhibitor 100 μM): 94 (1) %; residual metabolism (percentage of control), zidovudine glucuronidation ([1]; inhibitor 200 μM): 75 (3) %; % of control metabolism (SD, n = 3), raloxifene glucuronide G1 [2]: 37 (1) % and 64 (1) %; % of control metabolism (SD, n = 3), raloxifene glucuronide G2 [2]: 33 (0) % and 60 (1) % |
| O=C(O)C=Cc1ccccc1 [Cinnamic acid] | 97 (3) % |  |  |  |  |  | 94 (2) % |  |  |
| COc1cc(CNC(=O)CCCCCCC(C)C)ccc1O [Dihydrocapsaicin] | 50 (1) % | 60 (3) % | 60 (3) % | 52 (2) % | 52 (2) % | 42 (2) % | 42 (2) % | 42 (2) % | % of control metabolism (SD, n = 3), raloxifene glucuronide G1 [2, 4]: 49 (1) %; % of control metabolism (SD, n = 3), raloxifene glucuronide G1 [2, 5]: 18 (1) %; % of control metabolism (SD, n = 3), raloxifene glucuronide G2 [2, 6]: 68 (2) %; % of control metabolism (SD, n = 3), raloxifene glucuronide G2 [2, 7]: 26 (1) % |
| C[C@]12CC[C@@H]3c4ccc(O)cc4CC[C@H]3[C@@H]1CC[C@@H]2O [E2, 17-β-estradiol, reference compound] | 29 (1) % and 24 (2) % |  |  |  |  |  | 80 (2) % |  | residual metabolism (percentage of control), zidovudine glucuronidation ([1]; inhibitor 50 μM): 50 (1) %; residual metabolism (percentage of control), zidovudine glucuronidation ([1]; inhibitor 100 μM): 28 (1) %; residual metabolism (percentage of control), zidovudine glucuronidation ([1]; inhibitor 200 μM): 24 (0) %; % of control metabolism (SD, n = 3), raloxifene glucuronide G1 [2, 5]: 39 (1) %; % of control metabolism (SD, n = 3), raloxifene glucuronide G2 [2, 7]: 56 (2) % |
| CC(C)=CCC/C(C)=C/CO [Geraniol] | 28 (3) % and 25 (0) % |  |  |  |  |  | 75 (0) % | 9 (1) % | residual metabolism (percentage of control), zidovudine glucuronidation ([1]; inhibitor 100 μM): 77 (5) %; residual metabolism (percentage of control), zidovudine glucuronidation ([1]; inhibitor 200 μM): 62 (3) % |
| COc1ccc2c(c1)c(CC(=O)O)c(C)n2C(=O)c1ccc(Cl)cc1 [Indomethacin, reference compound] | 68 (7) % |  | 82 (0) % |  | 73 (1) % |  | 49 (2), % and 48 (1) % |  |  |
| C=CC(C)(O)CCC=C(C)C (centres unmarked) [Linalool] | 73 (5) % |  |  |  |  |  | 86 (2) % |  |  |
| CCCCC/C=C\C/C=C\CCCCCCCC(=O)O [Linoleic acid] | 68 (5) % | 86 (3) % | 86 (3) % | 77 (4) % | 77 (4) % | 33 (1) % | 33 (1) % |  | % of control metabolism (SD, n = 3), raloxifene glucuronide G1 [2, 4]: 101 (8) %; % of control metabolism (SD, n = 3), raloxifene glucuronide G1 [2, 5]: 29 (0) %; % of control metabolism (SD, n = 3), raloxifene glucuronide G2 [2, 6]: 100 (4) % |
| CC(=O)OC1CC(C)CCC1C(C)C (centres unmarked) [Menthyl acetate] | 35 (1) % |  |  |  |  |  |  | 20 (1) % | residual metabolism (percentage of control), zidovudine glucuronidation ([1]; inhibitor 200 μM): 64 (2) % |
| CC1=C(/C=C/C(C)=C/C=C/C(C)=C/CO)C(C)(C)CCC1 [Retinol] | 76 (2) % | 59 (1) % | 59 (1) % | 39 (1) % | 39 (1) % | 25 (1) % | 25 (1) % |  |  |
| COc1cc(C=O)ccc1O [Vanillin] | 81 (4) % |  |  |  |  |  |  |  |  |
| COc1cc(CO)ccc1O [Vanillyl alcohol] | 95 (5) % |  | 79 (1) % |  | 67 (3) % |  | 42 (0), % and 42 (0) % |  |  |
